Laboratory results taken from patent US11304913B2, “Analgesic compositions” (Vapogenix, Inc., priority 2013, dated 2022).

Format: physicochemical
Protocol: A time-dependent evaporation study was performed with a composition of the invention (FIG. 3). Isoflurane alone was used as the control in the experiment.

FC(F)OC(Cl)C(F)(F)F (centres unmarked) [isoflurane]
original weight remaining (0.75 h): 86.8% | lost due to evaporation (after 45 minutes of experiment): 13.2%
